Test results from patent US8883782B2, “Spiro-tetracyclic ring compounds as beta-secretase modulators and methods of use” (Amgen Inc., priority 2010, dated 2014).

Target: Beta Secretase enzyme (BACE) (Homo sapiens, UniProt P56817)
Test: In vitro enzymatic BACE FRET (fluorescence resonance energy transfer) assay
Assay type: biochemical
Conditions: BACE 1 FRET assay (uM)
Method: In Vitro Enzymatic Bace Fret (Fluorescence Resonance Energy Transfer) Assay (Enzyme Assay Data in the Example Table I)
The assay buffer used in this screen is 0.05 M acetate, pH 4.2, 10% DMSO final, 100 uM genapol (which is a nonionic detergent, below its Critical Micelle Concentration). […] This assay is effectively started by the addition of FRET substrate (50 nM) and the combination is incubated for one hour. The FRET assay is terminated with by addition of Tris buffer, which raises the pH to neutrality, and the fluorescence is determined. The FRET substrate is a peptide with commercially available fluorophore and quencher, on opposite sides of the BACE cleavage site.

Sequence of Beta Secretase enzyme (BACE) (P56817 46-501, species assumed): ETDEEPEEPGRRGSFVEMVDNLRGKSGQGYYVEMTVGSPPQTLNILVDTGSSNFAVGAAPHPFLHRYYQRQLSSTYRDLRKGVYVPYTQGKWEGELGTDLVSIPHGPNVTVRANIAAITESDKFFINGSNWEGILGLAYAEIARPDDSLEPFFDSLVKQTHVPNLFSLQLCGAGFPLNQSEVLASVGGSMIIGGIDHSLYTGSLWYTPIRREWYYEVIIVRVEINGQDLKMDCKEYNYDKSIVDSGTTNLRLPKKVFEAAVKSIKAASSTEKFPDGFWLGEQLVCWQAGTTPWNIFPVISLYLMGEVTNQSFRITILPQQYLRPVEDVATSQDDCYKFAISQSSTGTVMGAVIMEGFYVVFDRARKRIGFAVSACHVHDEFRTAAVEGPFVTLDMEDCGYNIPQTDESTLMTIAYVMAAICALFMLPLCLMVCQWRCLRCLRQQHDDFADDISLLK

Compound | IC50
NC1=N[C@]2(CO1)c1cc(C3=CCOCC3)ccc1Oc1ccc(-c3cccnc3F)cc12 [Example 136, (R)-2′-(3,6-dihydro-2H-pyran-4-yl)-7′-(2-fluoropyridin-3-yl)-5H-spiro[oxazole-4,9′-xanthen]-2-amine 2,2,2-trifluoroacetate] | 0.0026 µM
NC1=N[C@@]2(CO1)c1cc(-c3cccnc3F)ccc1Oc1cnc(N3CCC(F)(F)CC3)cc12 [Example 137, (S)-3-(4,4-difluoropiperidin-1-yl)-7-(2-fluoropyridin-3-yl)-5′H-spiro[chromeno[2,3-c]pyridine-5,4′-oxazol]-2′-amine] | 0.0007 µM
NC1=N[C@@]2(CO1)c1cc(-c3cccnc3F)ccc1Oc1cnc(N3CCOCC3)cc12 [Example 890, (5S)-7-(2-fluoro-3-pyridinyl)-3-(4-morpholinyl)spiro[chromeno[2,3-c]pyridine-5,4′-[1,3]oxazol]-2′-amine] | 0.0013 µM
NC1=N[C@@]2(CO1)c1cc(-c3cccnc3F)ccc1Oc1cnc(N3CCC(F)(F)C3)cc12 [Example 140, (S)-3-(3,3-difluoropyrrolidin-1-yl)-7-(2-fluoropyridin-3-yl)-5′H-spiro[chromeno[2,3-c]pyridine-5,4′-oxazol]-2′-amine] | 0.0006 µM

Same assay, conditions: average IC50, enzyme assay; read-out: BACE 1 FRET assay

Compound | IC50
NC1=N[C@@]2(CO1)c1cc(-c3c(F)ccnc3F)ccc1Oc1cnc(-c3ccnc(F)c3)cc12 [Example 397, (5S)-7-(2,4-difluoro-3-pyridinyl)-3-(2-fluoro-4-pyridinyl)spiro[chromeno[2,3-c]pyridine-5,4′-[1,3]oxazol]-2′-amine] | 0.002 µM
NC1=N[C@@]2(CO1)c1cc(-c3cccnc3F)ccc1Oc1cnc(-c3cncs3)cc12 [Example 576, (5S)-7-(2-fluoro-3-pyridinyl)-3-(1,3-thiazol-5-yl)spiro[chromeno[2,3-c]pyridine-5,4′-[1,3]oxazol]-2′-amine] | 0.0046 µM
NC1=N[C@@]2(CS1)c1cc(-c3cccnc3F)ccc1Oc1cnc(Cl)cc12 [Example 594, (5S)-3-chloro-7-(2-fluoro-3-pyridinyl)spiro[chromeno[2,3-c]pyridine-5,4′-[1,3]thiazol]-2′-amine] | 0.0531 µM
NC1=N[C@@]2(CO1)c1cc(-c3c(F)ccnc3F)ccc1Oc1c(F)cc(C3=CCOCC3)cc12 [Example 565, (4S)-7′-(2,4-difluoro-3-pyridinyl)-2′-(3,6-dihydro-2H-pyran-4-yl)-4′-fluoro spiro[1,3-oxazole-4,9′-xanthen]-2-amine] | 0.002 µM
Cc1ncc(-c2cc3c(cn2)Oc2ccc(-c4cccnc4F)cc2[C@@]32COC(N)=N2)cn1 [Example 546, (5S)-7-(2-fluoro-3-pyridinyl)-3-(2-methyl-5-pyrimidinyl)spiro[chromeno[2,3-c]pyridine-5,4′-[1,3]oxazol]-2′-amine] | 0.0103 µM
NC1=N[C@@]2(CS1)c1cc(-c3cccnc3F)ccc1Oc1ncc(-c3cccnc3F)cc12 [Example 587, (5S)-3,7-bis (2-fluoro-3-pyridinyl)spiro[chromeno[2,3-b]pyridine-5,4′-[1,3]thiazol]-2′-amine] | 0.002 µM
NC1=N[C@@]2(CO1)c1cc(-c3ccc(F)cc3)ccc1Oc1cnc(C3CCOCC3)cc12 [Example 400, (5S)-7-(4-fluorophenyl)-3-(tetrahydro-2H-pyran-4-yl)spiro[chromeno[2,3-c]pyridine-5,4′-[1,3]oxazol]-2′-amine] | 0.0709 µM
NC1=N[C@@]2(CO1)c1cc(-c3cccnc3F)ccc1Oc1c(F)cc([C@H]3CCOC3)cc12 [Example 299, (4S)-4′-fluoro-7′-(2-fluoro-3-pyridinyl)-2′-((3R)-tetrahydro-3-furanyl)spiro[1,3-oxazole-4,9′-xanthen]-2-amine] | 0.0028 µM
NC1=N[C@@]2(CO1)c1cc(-c3cccnc3F)ccc1Oc1c2cc(-c2ccnc(F)c2)nc1F [Example 152, (5S)-1-fluoro-7-(2-fluoro-3-pyridinyl)-3-(2-fluoro-4-pyridinyl)spiro[chromeno[2,3-c]pyridine-5,4′-[1,3]oxazol]-2′-amine] | 0.002 µM
NC1=N[C@@]2(CO1)c1cc(-c3cncc(F)c3)ccc1Oc1c(F)cc([C@H]3CCOC3)cc12 [Example 296, (4S)-4′-fluoro-7′-(5-fluoro-3-pyridinyl)-2′-((3R)-tetrahydro-3-furanyl)spiro[1,3-oxazole-4,9′-xanthen]-2-amine] | 0.0072 µM
NC1=N[C@@]2(CS1)c1cc(-c3cccc(Cl)c3)ccc1Oc1cnc(Cl)cc12 [Example 593, (5S)-3-chloro-7-(3-chlorophenyl)spiro[chromeno[2,3-c]pyridine-5,4′-[1,3]thiazol]-2′-amine] | 0.0316 µM
NC1=N[C@@]2(CO1)c1cc(-c3c(F)ccnc3F)ccc1Oc1cnc(Cl)cc12 [Example 399, (5S)-3-chloro-7-(2,4-difluoro-3-pyridinyl)spiro[chromeno[2,3-c]pyridine-5,4′-[1,3]oxazol]-2′-amine] | 0.0599 µM
(4S)-4′-fluoro-7′-(2-fluoro-3-pyridinyl)-2′-(6-methyl-3-pyridinyl)spiro[1,3-oxazole-4,9′-xanthen]-2-amine [Example 223] | 0.002 µM
(4S)-4′-fluoro-7′-(2-fluoro-3-pyridinyl)-2′-(6-methoxy-3-pyridinyl)spiro[1,3-oxazole-4,9′-xanthen]-2-amine [Example 224] | 0.002 µM
NC1=N[C@@]2(CO1)c1cc(-c3cc(F)cnc3F)ccc1Oc1cnc(-c3ccnc(F)c3)cc12 [Example 549, (5S)-7-(2,5-difluoro-3-pyridinyl)-3-(2-fluoro-4-pyridinyl)spiro[chromeno[2,3-c]pyridine-5,4′-[1,3]oxazol]-2′-amine] | 0.029 µM
NC1=N[C@@]2(CS1)c1cc(-c3cncc(F)c3)ccc1Oc1cnc(Cl)cc12 [Example 595, (5S)-3-chloro-7-(5-fluoro-3-pyridinyl)spiro[chromeno[2,3-c]pyridine-5,4′-[1,3]thiazol]-2′-amine] | 0.142 µM
NC1=N[C@@]2(CO1)c1cc(-c3ccnc(F)c3)ccc1Oc1cnc(C3=CCOCC3)cc12 [Example 547, (5S)-3-(3,6-dihydro-2H-pyran-4-yl)-7-(2-fluoro-4-pyridinyl)spiro[chromeno[2,3-c]pyridine-5,4′-[1,3]oxazol]-2′-amine] | 0.0261 µM
NC1=N[C@]2(CS1)c1cc(-c3cccc(C4=CCOCC4)c3)ccc1Oc1cnc(C3=CCOCC3)cc12 [Example 596, (5R)-3-(3,6-dihydro-2H-pyran-4-yl)-7-(3-(3,6-dihydro-2H-pyran-4-yl)phenyl)spiro[chromeno[2,3-c]pyridine-5,4′-[1,3]thiazol]-2′-amine] | 0.0478 µM
(4S)-4′-fluoro-7′-(2-fluoro-3-pyridinyl)-2′-(2-oxa-6-azaspiro[3.4]oct-6-yl)spiro[1,3-oxazole-4,9′-xanthen]-2-amine [Example 857] | < 0.002 µM
NC1=N[C@@]2(CO1)c1cc(-c3cccnc3F)ccc1Oc1c(F)cc([C@@H]3CCOC3)cc12 [Example 300, (4S)-4′-fluoro-7′-(2-fluoro-3-pyridinyl)-2′-((3S)-tetrahydro-3-furanyl)spiro[1,3-oxazole-4,9′-xanthen]-2-amine] | 0.0023 µM
CC1(C#Cc2cnc3c(c2)[C@]2(CSC(N)=N2)c2cc(-c4cccnc4F)ccc2O3)COC1 [Example 586, (5S)-7-(2-fluoro-3-pyridinyl)-3-((3-methyl-3-oxetanyl)ethynyl)spiro[chromeno[2,3-b]pyridine-5,4′-[1,3]thiazol]-2′-amine] | 0.002 µM
CC(C)(C#N)COc1cc(F)c2c(c1)[C@]1(COC(N)=N1)c1cc(-c3c(F)ccnc3F)ccc1O2 [Example 566, 3-(((4S)-2-amino-7′-(2,4-difluoro-3-pyridinyl)-4′-fluorospiro[1,3-oxazole-4,9′-xanthen]-2′-yl)oxy)-2,2-dimethylpropanenitrile] | 0.002 µM
NC1=N[C@@]2(CO1)c1cc(-c3ccccc3)ncc1Oc1c(F)cc(C3=CCOCC3)cc12 [Example 309, (5S)-7-(3,6-dihydro-2H-pyran-4-yl)-9-fluoro-3-phenylspiro[chromeno[2,3-c]pyridine-5,4′-[1,3]oxazol]-2′-amine] | 0.0172 µM
NC1=N[C@@]2(CO1)c1cc(-c3ccnc(F)c3)ccc1Oc1cnc(-c3ccnc(F)c3)cc12 [Example 548, (5S)-3,7-bis(2-fluoro-4-pyridinyl)spiro[chromeno[2,3-c]pyridine-5,4′-[1,3]oxazol]-2′-amine] | 0.055 µM
NC1=N[C@@]2(CO1)c1cc(-c3c(F)ccnc3F)ccc1Oc1cnc(-c3ccncc3)cc12 [Example 398, (5S)-7-(2,4-difluoro-3-pyridinyl)-3-(4-pyridinyl)spiro[chromeno[2,3-c]pyridine-5,4′-[1,3]oxazol]-2′-amine] | 0.002 µM
NC1=N[C@@]2(CO1)c1cc(-c3cccc(Cl)c3)ccc1Oc1cnc(N3CCC(F)(F)C3)cc12 [Example 432, (5S)-7-(3-chlorophenyl)-3-(3,3-difluoro-1-pyrrolidinyl)spiro[chromeno[2,3-c]pyridine-5,4′-[1,3]oxazol]-2′-amine] | 0.002 µM
CC(C)(C)C#Cc1cc2c(cn1)Oc1ccc(-c3c(F)ccnc3F)cc1[C@@]21COC(N)=N1 [Example 165, (5S)-7-(2,4-difluoro-3-pyridinyl)-3-(3,3-dimethyl-1-butyn-1-yl)spiro[chromeno[2,3-c]pyridine-5,4′-[1,3]oxazol]-2′-amine] | 0.002 µM
NC1=N[C@@]2(CO1)c1cc(-c3cccnc3)c(F)cc1Oc1c(F)cc(C3=CCCOC3)cc12 [Example 298, (4S)-7′-(5,6-dihydro-2H-pyran-3-yl)-3′,5′-difluoro-2′-(3-pyridinyl)spiro[1,3-oxazole-4,9′-xanthen]-2-amine] | 0.0968 µM
NC1=N[C@@]2(CS1)c1cc(Br)ccc1Oc1c2cc(Cl)nc1F [Example 597, (5S)-7-bromo-3-chloro-1-fluorospiro[chromeno[2,3-c]pyridine-5,4′-[1,3]thiazol]-2′-amine] | 4.5 µM
